# Measured values from patent US20220315895A1, “METHODS OF MAKING OLIGOPOTENT AND UNIPOTENT PRECURSORS” (Transfusion Health, LLC, priority 2019, published 2022).
# Legend:
# [1] = test system: CD34+ cells from cord blood; assay: HSC Expansion Culture, 14 to 64 days (Example 42); format: cell-based, human
# Description: Cryopreserved CD34+ cells from cord blood were purchased from STEMCELL Technologies. Primary human CD34+ cells were isolated by the supplier from cord blood samples using positive immunomagnetic separation techniques. Cells were thawed, gradually brought to room temperature, then washed. Cells were primed for expansion with overnight culture in StemSpan SFEM I with 100 ng/mL each of FLT3L, TPO, SCF, and IL-6. Eighteen-to-twenty-four hours later (day 1), cells were counted and immunophenotyped (flow cytometry on an Invitrogen Attune N×T cytometer). Cells were then placed into “HSC Expansion Culture,” described here, or placed directly into Differentiation Culture with STEMCELL's Myeloid StemSpan Myeloid Expansion Supplement (Granulocyte). Media for expanding CD34+ cell numbers was prepared in StemSpan SFEM II (STEMCELL) and added to duplicate 25 cm^2 flasks (4 ml total volume per flask). Expansion Culture conditions also included an antibiotic solution containing penicillin, streptomycin, and amphotericin B to avoid contamination. Additional media components and concentrations used for the conditions tested were as described above in Table 9. All incubations for Expansion Culture took place at 3% oxygen (controlled by nitrogen) and 5% CO2. During Expansion Culture, samples were taken for cell counting and phenotyping. […]
# [2] = test system: expanded cord blood CD34+ cells, granulocyte (CD15+/CD14−) and monocyte (CD14+/CD15−) lineage; assay: Myeloid (granulocyte and monocyte) Differentiation Culture after Expansion Culture (Example 38); format: cell-based, human
# Description: At days 21 and 63, CD34+ enriched cells were placed into Differentiation Cultures, described below.
# Differentiation cultures were initiated using Erythroid, Myeloid (granulocyte and monocyte), and Megakaryocyte HemaTox kits from STEMCELL technologies following the manufacturer's instructions. In brief, lineage media was prepared by adding cytokine cocktails for erythrocyte (SCF, IL-3, and EPO), myeloid (i.e. mixed granulocyte/monocyte, SCF, TPO, G-CSF, and GM-CSF) or megakaryocyte (SCF, IL-6, IL-9 and TPO) lineage differentiation to their respective kits' media, then adding approximately 30-100 CD34+ cells for erythroid or myeloid cultures, or 300-1000 CD34+ cells for megakaryoid cultures. Exact cell numbers plated were quantified for later analysis. All incubations for Differentiation Culture took place at 3% oxygen (controlled by nitrogen) and 5% CO2.
# Following seven days of erythroid or myeloid cultures, or ten days for megakaryoid cultures, differentiated cell output was quantified using flow cytometry. Erythroid output was quantified using anti-CD71 and anti-CD235a antibodies, and megakaryocyte lineage output was quantified using anti-CD41 and anti-CD42b antibodies. Granulocyte and monocyte lineage outputs were assessed in tandem, using CD14 and CD15 antibodies, with granulocyte lineage cells being CD15+/CD14−, and monocyte lineage cells being CD14+/CD15−.
# A number of quantities were calculated to assess the effect of expansion of CD34+ cells in the +Formula I Condition on the output of lineage differentiated cells. “Per-Assayed-CD34+ Cell Output” describes the output of differentiated cells per CD34+ cell placed into Differentiation Culture, and is calculated by dividing the total number of lineage-positive cells by the input CD34+ cell number quantified at Differentiation Culture initiation at day 1, 21, or 63. “Per-expanded-day-1-CD34+ cell output” describes the number of differentiated cells of a given lineage that may be produced from a single CD34+ cell following both Expansion Cell Culture (if expanded) followed by Differentiation Culture, and is calculated by multiplying Per-Assayed-CD34+ Cell Output by the fold expansion of CD34+ cells from day 1 to the day of analysis, either day 21 or day 63. […] We calculated therapeutic units for granulocyte precursors, using 50 billion (5×10^10) cells per dose as a conservative benchmark (Valentini, C. G., Farina, F., Pagano, L., and Teofili, L. (2017). Granulocyte Transfusions: A Critical Reappraisal. Biol. Blood Marrow Transplant. 23, 2034-2041). […]
# [3] = +Formula I expansion to day 21, then 7 days differentiation
# [4] = +Formula I expansion to day 63, then 7 days differentiation
smiles,measurement,setting,value
CC(C)(C)C(=O)Nc1ccc2c(c1)C(O)c1ccccc1-2 (stereo not drawn) [Compound 1.010],fold expansion in CD34+ cell numbers,"[1]; +Formula I conditions (Compound 1.010 8 μM), day 14",about 270 fold
same,fold expansion in CD34+ cell numbers,"[1]; +Formula I conditions, day 64","about 86,000 fold"
same,"fold increase of per-expanded-day-1-CD34+ cell output, monocyte lineage, over uncultured cells",[2]; [3],800 fold
same,"fold increase of per-expanded-day-1-CD34+ cell output, total granulocyte lineage, over uncultured cells",[2]; [3],370 fold
same,"fold increase of per-expanded-day-1-CD34+ cell output, monocyte lineage, over uncultured cells",[2]; [4],"108,000 fold"
same,"fold increase of per-expanded-day-1-CD34+ cell output, total granulocyte lineage, over uncultured cells",[2]; [4],"67,000 fold"
